Assay results: the supplement of paper PMC10307832

Legend:
Experiment in all cases: relative viability (nuclei count vs DMSO), 5 days (fraction); higher = more cells survive
[1] = compound: CC(C)(C)c1cc(NC(=O)Nc2ccc(-c3cn4c(n3)sc3cc(OCCN5CCOCC5)ccc34)cc2)no1 [Quizartinib] + CS(=O)(=O)CCNCc1ccc(-c2ccc3ncnc(Nc4ccc(OCc5cccc(F)c5)c(Cl)c4)c3c2)o1 [Lapatinib] (partner 2 µM)
Outline: (§1)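 A single step with final 0.05% Triton X-100, 1% formaldehyde and 1 ug/ml Hoechst fixed the cells and stained nuclei 5 days after treatment. Lung cancer cell lines in 1536-well plates had been treated by pin tool the day after seeding with one drug alone or a fixed anchor-drug dose plus five library-drug doses (not always all listed) in √10 steps, and nuclei were counted on 4× images. Relative viability is the ratio of nuclei in treated wells to nuclei in vehicle wells, taken as the median of duplicate plates.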

[2] = compound: COCC[n+]1c2c(n(Cc3cnccn3)c1C)C(=O)c1ccccc1C2=O [YM155] + O=C(c1cc(Cc2n[nH]c(=O)c3ccccc23)ccc1F)N1CCN(C(=O)C2CC2)CC1 [Olaparib] (partner 8 µM)
Outline: as §1

[3] = compound: COCC[n+]1c2c(n(Cc3cnccn3)c1C)C(=O)c1ccccc1C2=O [YM155] + Cc1cc(Nc2cc(N3CCN(C)CC3)nc(Sc3ccc(NC(=O)C4CC4)cc3)n2)n[nH]1 [Tozasertib] (partner 0.1 µM)
Outline: as §1

[4] = compound: COCC[n+]1c2c(n(Cc3cnccn3)c1C)C(=O)c1ccccc1C2=O [YM155] + Cc1nc(NC(=O)N2CCC[C@H]2C(N)=O)sc1-c1ccnc(C(C)(C)C(F)(F)F)c1 [Alpelisib] (partner 2 µM)
Outline: as §1

| Cell Line | relative viability ([1]; first compound 0.001 µM) | relative viability ([1]; first compound 0.003162 µM) | relative viability ([1]; first compound 0.01 µM) | relative viability ([1]; first compound 0.03162 µM) | relative viability ([1]; first compound 0.1 µM) | relative viability ([2]; first compound 0.002 µM) | relative viability ([2]; first compound 0.006325 µM) | relative viability ([2]; first compound 0.02 µM) | relative viability ([2]; first compound 0.06325 µM) | relative viability ([3]; first compound 0.002 µM) | relative viability ([3]; first compound 0.006325 µM) | relative viability ([3]; first compound 0.02 µM) | relative viability ([3]; first compound 0.06325 µM) | relative viability ([4]; first compound 0.002 µM) | relative viability ([4]; first compound 0.006325 µM) | relative viability ([4]; first compound 0.02 µM) | relative viability ([4]; first compound 0.06325 µM) |
| --- | --- | --- | --- | --- | --- | --- | --- | --- | --- | --- | --- | --- | --- | --- | --- | --- | --- |
| NCI-H2023 | 0.0985 | 0.819 | 0.737 | 0.293 | 0.846 | 0.558 | 0.468 | 0.379 | 0.325 | 0.416 | 0.433 | 0.314 | 0.0926 | 0.589 | 0.671 | 0.594 | 0.156 |
| NCI-H661 | 0.493 | 0.457 | 0.436 | 0.468 | 0.691 | 0.727 | 0.686 | 0.739 | 0.41 | 0.376 | 0.358 | 0.369 | 0.285 | 0.637 | 0.657 | 0.862 | 0.59 |
| NCI-H322M | 0.565 | 0.502 | 0.605 | 0.628 | 0.673 | 0.719 | 0.815 | 0.706 | 0.734 | 0.461 | 0.496 | 0.504 | 0.46 | 0.762 | 0.878 | 0.666 | 0.732 |
| NCI-H838 | 0.816 | 1.11 | 0.784 | 0.675 | 0.605 | 0.711 | 0.787 | 0.761 | 0.416 | 0.252 | 0.275 | 0.252 | 0.19 | 0.971 | 0.991 | 1.05 | 0.316 |
| NCI-H23 | – | 0.959 | 1.28 | 0.861 | 1.01 | – | 0.323 | 0.294 | 0.235 | 0.373 | 0.345 | 0.53 | 0.286 | 0.707 | 0.669 | 0.71 | 0.271 |
| LOU-NH91 | 0.724 | 0.806 | 0.804 | 0.522 | 0.785 | 0.894 | 0.874 | 0.921 | 0.745 | 0.667 | 0.665 | 0.712 | 0.603 | 0.767 | 0.674 | 0.76 | 0.745 |
